{"source": "ChEMBL document CHEMBL6114986", "about": "“Vitexin alleviates lipid metabolism disorders and hepatic injury in obese mice through the PI3K/AKT/mTOR/SREBP-1c pathway” (Eur J Med Chem, 2025)", "type_in_all_cases": "functional, organism-based", "key": {"[1]": {"system": "Mus musculus", "experiment": "Anti-obesity activity in C57BL/6 mouse assessed as liver weight at low dose administered intragastrically once daily for 5 weeks (reference value: 1.15 +/- 0.04 g)", "details": "route ig"}, "[2]": {"system": "Mus musculus", "experiment": "Anti-obesity activity in C57BL/6 mouse assessed as reduction in liver TNF-alpha level at high dose administered intragastrically once daily for 5 weeks relative to control", "set-up": "scale not given: the % may be the effect or the level left", "details": "route ig"}, "[3]": {"system": "Mus musculus", "experiment": "Anti-obesity activity in C57BL/6 mouse assessed as liver TNF-alpha level at high dose administered intragastrically once daily for 5 weeks (reference value: 5940.65 +/- 261.75 pg/g)", "details": "route ig"}, "[4]": {"system": "Mus musculus", "experiment": "Anti-obesity activity in C57BL/6 mouse assessed as liver IL-6 level at high dose administered intragastrically once daily for 5 weeks (reference value: 1042.25 +/- 21.85 pg/g)", "details": "route ig"}, "[5]": {"system": "Mus musculus", "experiment": "Anti-obesity activity in C57BL/6 mouse assessed as reduction in serum TC level at high dose administered intragastrically once daily for 5 weeks relative to control", "set-up": "scale not given: the % may be the effect or the level left", "details": "route ig"}, "[6]": {"system": "Mus musculus", "experiment": "Anti-obesity activity in C57BL/6 mouse assessed as reduction in liver IL-6 level at high dose administered intragastrically once daily for 5 weeks relative to control", "set-up": "scale not given: the % may be the effect or the level left", "details": "route ig"}, "[7]": {"system": "Mus musculus", "experiment": "Anti-obesity activity in C57BL/6 mouse assessed as decrease in IL-1beta level in liver at low to high dose administered intragastrically once daily for 5 weeks by immunoblot analysis", "details": "route ig"}, "[8]": {"system": "Mus musculus", "experiment": "Anti-obesity activity in C57BL/6 mouse assessed as serum IL-18 level at low dose administered intragastrically once daily for 5 weeks (reference value: 149.1 +/- 2.066 pg/ml)"}, "[9]": {"system": "Mus musculus", "experiment": "Anti-obesity activity in C57BL/6 mouse assessed as reduction in adipocyte volume at low to high dose administered intragastrically once daily for 5 weeks by CT analysis", "details": "route ig"}, "[10]": {"system": "Mus musculus", "experiment": "Anti-obesity activity in C57BL/6 mouse assessed as reduction in subabdominal fat thickness at low to high dose administered intragastrically once daily for 5 weeks by CT analysis", "details": "route ig"}, "[11]": {"system": "Mus musculus", "experiment": "Anti-obesity activity in C57BL/6 mouse assessed as serum TG level at low dose administered intragastrically once daily for 5 weeks (reference value: 13.13 +/- 1.10 mmol/g)"}, "[12]": {"system": "Mus musculus", "experiment": "Anti-obesity activity in C57BL/6 mouse assessed as reduction in inflammatory cell infiltration in liver at low to high dose administered intragastrically once daily for 5 weeks by H and E staining based analysis", "details": "route ig"}, "[13]": {"system": "Mus musculus", "experiment": "Anti-obesity activity in C57BL/6 mouse assessed as decrease in ratio of p-IkappaBalpha/IkappaBalpha levels in liver at low to high dose administered intragastrically once daily for 5 weeks by immunoblot analysis", "details": "route ig"}, "[14]": {"system": "Mus musculus", "experiment": "Anti-obesity activity in C57BL/6 mouse assessed as final weight at high dose administered intragastrically once daily for 5 weeks (reference value: 28.86 +/- 0.86 g)", "details": "route ig"}, "[15]": {"system": "Mus musculus", "experiment": "Anti-obesity activity in C57BL/6 mouse assessed as liver index at high dose administered intragastrically once daily for 5 weeks (reference value: 3.97 +/- 0.09 %)", "details": "route ig"}, "[16]": {"system": "Mus musculus", "experiment": "Anti-obesity activity in C57BL/6 mouse assessed as reduction in serum IL-18 level at high dose administered intragastrically once daily for 5 weeks relative to control", "set-up": "scale not given: the % may be the effect or the level left", "details": "route ig"}, "[17]": {"system": "Mus musculus", "experiment": "Anti-obesity activity in C57BL/6 mouse assessed as liver IL-6 level at low dose administered intragastrically once daily for 5 weeks (reference value: 1042.25 +/- 21.85 pg/g)"}, "[18]": {"system": "Mus musculus", "experiment": "Anti-obesity activity in C57BL/6 mouse assessed as liver TNF-alpha level at low dose administered intragastrically once daily for 5 weeks (reference value: 5940.65 +/- 261.75 pg/g)"}, "[19]": {"system": "Mus musculus", "experiment": "Anti-obesity activity in C57BL/6 mouse assessed as decrease in ratio of p-NFkappaB/NFkappaB levels in liver at low to high dose administered intragastrically once daily for 5 weeks by immunoblot analysis", "details": "route ig"}, "[20]": {"system": "Mus musculus", "experiment": "Anti-obesity activity in C57BL/6 mouse assessed as weight difference at high dose administered intragastrically once daily for 5 weeks (reference value: 9.80 +/- 0.97 g)", "details": "route ig"}, "[21]": {"system": "Mus musculus", "experiment": "Anti-obesity activity in C57BL/6 mouse assessed as weight difference at low dose administered intragastrically once daily for 5 weeks (reference value: 9.80 +/- 0.97 g)", "details": "route ig"}, "[22]": {"system": "Mus musculus", "experiment": "Anti-obesity activity in C57BL/6 mouse assessed as liver index at low dose administered intragastrically once daily for 5 weeks (reference value: 3.97 +/- 0.09 %)", "details": "route ig"}, "[23]": {"system": "Mus musculus", "experiment": "Anti-obesity activity in C57BL/6 mouse assessed as decrease in ratio of p-AKT/AKT levels in liver at low to high dose administered intragastrically once daily for 5 weeks by immunoblot analysis", "details": "route ig"}, "[24]": {"system": "Mus musculus", "experiment": "Anti-obesity activity in C57BL/6 mouse assessed as final weight at low dose administered intragastrically once daily for 5 weeks (reference value: 28.86 +/- 0.86 g)", "details": "route ig"}, "[25]": {"system": "Mus musculus", "experiment": "Anti-obesity activity in C57BL/6 mouse assessed as serum IL-18 level at high dose administered intragastrically once daily for 5 weeks (reference value: 149.1 +/- 2.066 pg/ml)"}, "[26]": {"system": "Mus musculus", "experiment": "Anti-obesity activity in C57BL/6 mouse assessed as reduction in lipid droplets in liver at low to high dose administered intragastrically once daily for 5 weeks by H and E staining based analysis", "details": "route ig"}, "[27]": {"system": "Mus musculus", "experiment": "Anti-obesity activity in C57BL/6 mouse assessed as decrease in […] level in liver at low to high dose administered intragastrically once daily for 5 weeks by immunoblot analysis", "details": "route ig"}, "[28]": {"system": "Mus musculus", "experiment": "Anti-obesity activity in C57BL/6 mouse assessed as decrease in ratio of p-PI3K/PI3K levels in liver at low to high dose administered intragastrically once daily for 5 weeks by immunoblot analysis", "details": "route ig"}, "[29]": {"system": "Mus musculus", "experiment": "Anti-obesity activity in C57BL/6 mouse assessed as liver weight at high dose administered intragastrically once daily for 5 weeks (reference value: 1.15 +/- 0.04 g)", "details": "route ig"}, "[30]": {"system": "Mus musculus", "experiment": "Anti-obesity activity in C57BL/6 mouse assessed as initial weight at low dose administered intragastrically once daily for 5 weeks (reference value: 19.06 +/- 0.94 g)", "details": "route ig"}, "[31]": {"system": "Mus musculus", "experiment": "Anti-obesity activity in C57BL/6 mouse assessed as initial weight at high dose administered intragastrically once daily for 5 weeks (reference value: 19.06 +/- 0.94 g)", "details": "route ig"}, "[32]": {"system": "Mus musculus", "experiment": "Anti-obesity activity in C57BL/6 mouse assessed as serum TC level at low dose administered intragastrically once daily for 5 weeks (reference value: 11.12 +/- 0.32 mmol/g)"}, "[33]": {"system": "Mus musculus", "experiment": "Anti-obesity activity in C57BL/6 mouse assessed as serum TC level at high dose administered intragastrically once daily for 5 weeks (reference value: 11.12 +/- 0.32 mmol/g)"}, "[34]": {"system": "Mus musculus", "experiment": "Anti-obesity activity in C57BL/6 mouse assessed as decrease in ratio of p-mTOR/mTOR levels in liver at low to high dose administered intragastrically once daily for 5 weeks by immunoblot analysis", "details": "route ig"}, "[35]": {"system": "Mus musculus", "experiment": "Anti-obesity activity in C57BL/6 mouse assessed as reduction in serum TG level at high dose administered intragastrically once daily for 5 weeks relative to control", "set-up": "scale not given: the % may be the effect or the level left", "details": "route ig"}, "[36]": {"system": "Mus musculus", "experiment": "Anti-obesity activity in C57BL/6 mouse assessed as serum TG level at high dose administered intragastrically once daily for 5 weeks (reference value: 13.13 +/- 1.10 mmol/g)"}, "[37]": {"system": "Mus musculus", "experiment": "Anti-obesity activity in C57BL/6 mouse assessed as reduction in body weight at high dose administered intragastrically once daily for 5 weeks relative to control", "set-up": "scale not given: the % may be the effect or the level left", "details": "route ig"}}, "note": "The source made the active and inactive calls. The rule behind the calls is not given here."}
{"smiles": "O=c1cc(-c2ccc(O)cc2)oc2c([C@@H]3O[C@H](CO)[C@@H](O)[C@H](O)[C@H]3O)c(O)cc(O)c12", "values": [{"measurement": "Activity", "setting": "[1]", "value": 1.06, "unit": "g"}, {"measurement": "Activity", "setting": "[2]", "value": 30.8, "unit": "%"}, {"measurement": "Activity", "setting": "[3]", "value": 4110, "unit": "pg/g"}, {"measurement": "Activity", "setting": "[4]", "value": 806, "unit": "pg/g"}, {"measurement": "Activity", "setting": "[5]", "value": 29.8, "unit": "%"}, {"measurement": "Activity", "setting": "[6]", "value": 22.7, "unit": "%"}, {"measurement": "Activity", "setting": "[7]", "value": "Active"}, {"measurement": "Activity", "setting": "[8]", "value": 125, "unit": "pg/mL"}, {"measurement": "Activity", "setting": "[9]", "value": "Active"}, {"measurement": "Activity", "setting": "[10]", "value": "Active"}, {"measurement": "Activity", "setting": "[11]", "value": 8.71, "unit": "mmol/g"}, {"measurement": "Activity", "setting": "[12]", "value": "Active"}, {"measurement": "Activity", "setting": "[13]", "value": "Active"}, {"measurement": "Activity", "setting": "[14]", "value": 24.9, "unit": "g"}, {"measurement": "Activity", "setting": "[15]", "value": 3.23, "unit": "g"}, {"measurement": "Activity", "setting": "[16]", "value": 27.6, "unit": "%"}, {"measurement": "Activity", "setting": "[17]", "value": 829, "unit": "pg/g"}, {"measurement": "Activity", "setting": "[18]", "value": 5140, "unit": "pg/g"}, {"measurement": "Activity", "setting": "[19]", "value": "Active"}, {"measurement": "Activity", "setting": "[20]", "value": 4.07, "unit": "g"}, {"measurement": "Activity", "setting": "[21]", "value": 5.76, "unit": "g"}, {"measurement": "Activity", "setting": "[22]", "value": 3.6, "unit": "%"}, {"measurement": "Activity", "setting": "[23]", "value": "Active"}, {"measurement": "Activity", "setting": "[24]", "value": 26.7, "unit": "g"}, {"measurement": "Activity", "setting": "[25]", "value": 108, "unit": "pg/mL"}, {"measurement": "Activity", "setting": "[26]", "value": "Active"}, {"measurement": "Activity", "setting": "[27]", "value": "Active"}, {"measurement": "Activity", "setting": "[28]", "value": "Active"}, {"measurement": "Activity", "setting": "[29]", "value": 0.8, "unit": "g"}, {"measurement": "Activity", "setting": "[30]", "value": 21, "unit": "g"}, {"measurement": "Activity", "setting": "[31]", "value": 20.8, "unit": "g"}, {"measurement": "Activity", "setting": "[32]", "value": 8.44, "unit": "mmol/g"}, {"measurement": "Activity", "setting": "[33]", "value": 7.81, "unit": "mmol/g"}, {"measurement": "Activity", "setting": "[34]", "value": "Active"}, {"measurement": "Activity", "setting": "[35]", "value": 37.3, "unit": "%"}, {"measurement": "Activity", "setting": "[36]", "value": 8.23, "unit": "mmol/g"}, {"measurement": "Activity", "setting": "[37]", "value": 13.8, "unit": "%"}]}
